Measured values reported in publication PMC4710522, “A Novel Triazolopyridine-Based Spleen Tyrosine Kinase Inhibitor That Arrests Joint Inflammation” (PLoS ONE, 2016).

Tests used:
Assay in all cases: SelectScreen kinase assay
Format in all cases: biochemical
Abl_G250E_h = target: T1, Abl_G250E_h (Homo sapiens, UniProt P00519, G250E); conditions: KM ATP, read-out: % control
T1 construct: purchased Life Technologies (Invitrogen) SelectScreen, Z'-LYTE / Adapta
How it was run: (§1)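 A single 3 µM compound concentration was tested against each kinase in Z'-Lyte or Adapta assays, with ATP at KM, 10 or 100 µM as indicated, and activity normalised to DMSO-only wells.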

Abl_T315I_h = target: T2, Abl_T315I_h (Homo sapiens, UniProt P00519, T315I); conditions: KM ATP, read-out: % control
T2 construct: purchased Life Technologies (Invitrogen) SelectScreen, Z'-LYTE / Adapta
How it was run: as §1

Abl_h = target: T3, Abl_h (Homo sapiens, UniProt P00519); conditions: KM ATP, read-out: % control
T3 construct: purchased Life Technologies (Invitrogen) SelectScreen, Z'-LYTE / Adapta
How it was run: as §1

Aurora-C_h = target: T4, Aurora-C_h (Homo sapiens, UniProt Q9UQB9); conditions: KM ATP, read-out: % control
T4 construct: purchased Life Technologies (Invitrogen) SelectScreen, Z'-LYTE / Adapta
How it was run: as §1

CAMK1_h = target: T5, CAMK1_h (Homo sapiens, UniProt Q14012); conditions: 10 µM ATP, read-out: % control
T5 construct: purchased Life Technologies (Invitrogen) SelectScreen, Z'-LYTE / Adapta
How it was run: as §1

CDK5_p35_h = target: T6, CDK5_p35_h (Homo sapiens, UniProt Q00535); conditions: KM ATP, read-out: % control
T6 construct: purchased Life Technologies (Invitrogen) SelectScreen, Z'-LYTE / Adapta
How it was run: as §1

EphB3_h = target: T7, EphB3_h (Homo sapiens, UniProt P54753); conditions: KM ATP, read-out: % control
T7 construct: purchased Life Technologies (Invitrogen) SelectScreen, Z'-LYTE / Adapta
How it was run: as §1

Fes_h = target: T8, Fes_h (Homo sapiens, UniProt P07332); conditions: KM ATP, read-out: % control
T8 construct: purchased Life Technologies (Invitrogen) SelectScreen, Z'-LYTE / Adapta
How it was run: as §1

GRK7_h = target: T9, GRK7_h (Homo sapiens, UniProt Q8WTQ7); conditions: KM ATP, read-out: % control
T9 construct: purchased Life Technologies (Invitrogen) SelectScreen, Z'-LYTE / Adapta
How it was run: as §1

GSK3-alpha_h = target: T10, GSK3-alpha_h (Homo sapiens, UniProt P49840); conditions: KM ATP, read-out: % control
T10 construct: purchased Life Technologies (Invitrogen) SelectScreen, Z'-LYTE / Adapta
How it was run: as §1

HIPK1_h = target: T11, HIPK1_h (Homo sapiens, UniProt Q86Z02); conditions: KM ATP, read-out: % control
T11 construct: purchased Life Technologies (Invitrogen) SelectScreen, Z'-LYTE / Adapta
How it was run: as §1

JAK2-JH1-JH2_V617F_h = target: T12, JAK2-JH1-JH2_V617F_h (Homo sapiens, UniProt O60674, V617F); conditions: KM ATP, read-out: % control
T12 construct: purchased Life Technologies (Invitrogen) SelectScreen, Z'-LYTE / Adapta
How it was run: as §1

JAK2-JH1-JH2_h = target: T13, JAK2-JH1-JH2_h (Homo sapiens, UniProt O60674); conditions: KM ATP, read-out: % control
T13 construct: JAK2-JH1-JH2_h; purchased Life Technologies (Invitrogen) SelectScreen, Z'-LYTE / Adapta
How it was run: as §1

KDR_h = KDR_h (Homo sapiens, UniProt P35968)
How it was run: as §1

MARK3_h = target: T14, MARK3_h (Homo sapiens, UniProt P27448); conditions: KM ATP, read-out: % control
T14 construct: purchased Life Technologies (Invitrogen) SelectScreen, Z'-LYTE / Adapta
How it was run: as §1

MINK_h = target: T15, MINK_h (Homo sapiens, UniProt Q8N4C8); conditions: KM ATP, read-out: % control
T15 construct: purchased Life Technologies (Invitrogen) SelectScreen, Z'-LYTE / Adapta
How it was run: as §1

NEK6_h = target: T16, NEK6_h (Homo sapiens, UniProt Q9HC98); conditions: KM ATP, read-out: % control
T16 construct: purchased Life Technologies (Invitrogen) SelectScreen, Z'-LYTE / Adapta
How it was run: as §1

NEK9_h = target: T17, NEK9_h (Homo sapiens, UniProt Q8TD19); conditions: KM ATP, read-out: % control
T17 construct: purchased Life Technologies (Invitrogen) SelectScreen, Z'-LYTE / Adapta
How it was run: as §1

PDGFR-alpha_T674I_h = target: T18, PDGFR-alpha_T674I_h (Homo sapiens, UniProt P16234, T674I); conditions: KM ATP, read-out: % control
T18 construct: purchased Life Technologies (Invitrogen) SelectScreen, Z'-LYTE / Adapta
How it was run: as §1

PDGFR-alpha_h = PDGFR-alpha_h (Homo sapiens, UniProt P16234)
How it was run: as §1

PKD2_h = target: T19, PKD2_h (Homo sapiens, UniProt Q9BZL6); conditions: KM ATP, read-out: % control
T19 construct: purchased Life Technologies (Invitrogen) SelectScreen, Z'-LYTE / Adapta
How it was run: as §1

PRK1_h = target: T20, PRK1_h (Homo sapiens, UniProt Q16512); conditions: KM ATP, read-out: % control
T20 construct: purchased Life Technologies (Invitrogen) SelectScreen, Z'-LYTE / Adapta
How it was run: as §1

PRKG2_h = target: T21, PRKG2_h (Homo sapiens, UniProt Q13237); conditions: KM ATP, read-out: % control
T21 construct: purchased Life Technologies (Invitrogen) SelectScreen, Z'-LYTE / Adapta
How it was run: as §1

Plk1_h = target: T22, Plk1_h (Homo sapiens, UniProt P53350); conditions: KM ATP, read-out: % control
T22 construct: purchased Life Technologies (Invitrogen) SelectScreen, Z'-LYTE / Adapta
How it was run: as §1

Plk3_h = target: T23, Plk3_h (Homo sapiens, UniProt Q9H4B4); conditions: KM ATP, read-out: % control
T23 construct: purchased Life Technologies (Invitrogen) SelectScreen, Z'-LYTE / Adapta
How it was run: as §1

Ret_h = Ret_h (Homo sapiens, UniProt P07949)
How it was run: as §1

Ron_h = target: T24, Ron_h (Homo sapiens, UniProt Q04912); conditions: KM ATP, read-out: % control
T24 construct: purchased Life Technologies (Invitrogen) SelectScreen, Z'-LYTE / Adapta
How it was run: as §1

Ros_h = target: T25, Ros_h (Homo sapiens, UniProt P08922); conditions: KM ATP, read-out: % control
T25 construct: purchased Life Technologies (Invitrogen) SelectScreen, Z'-LYTE / Adapta
How it was run: as §1

TBK1_h = target: T26, TBK1_h (Homo sapiens, UniProt Q9UHD2); conditions: KM ATP, read-out: % control
T26 construct: purchased Life Technologies (Invitrogen) SelectScreen, Z'-LYTE / Adapta
How it was run: as §1

TrkC_h = target: T27, TrkC_h (Homo sapiens, UniProt Q16288); conditions: KM ATP, read-out: % control
T27 construct: purchased Life Technologies (Invitrogen) SelectScreen, Z'-LYTE / Adapta
How it was run: as §1

cKit_T670I_h = target: T28, cKit_T670I_h (Homo sapiens, UniProt P10721, T670I); conditions: KM ATP, read-out: % control
T28 construct: purchased Life Technologies (Invitrogen) SelectScreen, Z'-LYTE / Adapta
How it was run: as §1

cSRC-N1_h = target: T29, cSRC-N1_h (Homo sapiens, UniProt P12931); conditions: KM ATP, read-out: % control
T29 construct: purchased Life Technologies (Invitrogen) SelectScreen, Z'-LYTE / Adapta
How it was run: as §1

[1] = 3 µM, KM ATP, read-out: % control
[2] = 10-point dose-response, commercial vendor

Sequence of Ret_h (P07949 29-1114): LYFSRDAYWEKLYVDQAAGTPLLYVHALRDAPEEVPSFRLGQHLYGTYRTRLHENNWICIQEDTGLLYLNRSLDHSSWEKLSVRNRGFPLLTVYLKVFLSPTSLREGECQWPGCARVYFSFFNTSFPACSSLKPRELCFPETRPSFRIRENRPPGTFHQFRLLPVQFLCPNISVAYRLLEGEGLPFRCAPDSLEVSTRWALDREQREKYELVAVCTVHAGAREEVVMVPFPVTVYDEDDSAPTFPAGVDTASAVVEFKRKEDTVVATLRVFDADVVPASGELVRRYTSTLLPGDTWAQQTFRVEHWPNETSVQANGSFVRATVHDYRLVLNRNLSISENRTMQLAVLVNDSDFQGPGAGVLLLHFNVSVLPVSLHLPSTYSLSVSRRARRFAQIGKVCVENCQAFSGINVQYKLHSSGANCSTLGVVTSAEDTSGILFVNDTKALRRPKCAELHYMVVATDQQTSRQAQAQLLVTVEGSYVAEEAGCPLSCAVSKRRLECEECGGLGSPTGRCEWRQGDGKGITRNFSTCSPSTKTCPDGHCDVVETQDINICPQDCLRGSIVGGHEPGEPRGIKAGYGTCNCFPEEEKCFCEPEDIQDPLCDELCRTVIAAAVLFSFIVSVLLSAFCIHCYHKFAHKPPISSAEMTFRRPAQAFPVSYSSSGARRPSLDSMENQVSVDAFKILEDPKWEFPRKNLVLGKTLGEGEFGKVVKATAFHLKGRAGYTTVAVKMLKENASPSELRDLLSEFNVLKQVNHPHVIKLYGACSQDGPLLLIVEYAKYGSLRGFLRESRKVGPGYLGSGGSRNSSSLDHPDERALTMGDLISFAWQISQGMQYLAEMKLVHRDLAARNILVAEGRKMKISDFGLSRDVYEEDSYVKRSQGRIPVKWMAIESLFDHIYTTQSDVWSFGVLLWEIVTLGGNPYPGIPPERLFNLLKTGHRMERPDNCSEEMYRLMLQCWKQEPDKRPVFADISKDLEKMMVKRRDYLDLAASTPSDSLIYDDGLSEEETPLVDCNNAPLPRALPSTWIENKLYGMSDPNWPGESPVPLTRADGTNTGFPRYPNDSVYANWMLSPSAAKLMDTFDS
Sequence of KDR_h (P35968 20-1356): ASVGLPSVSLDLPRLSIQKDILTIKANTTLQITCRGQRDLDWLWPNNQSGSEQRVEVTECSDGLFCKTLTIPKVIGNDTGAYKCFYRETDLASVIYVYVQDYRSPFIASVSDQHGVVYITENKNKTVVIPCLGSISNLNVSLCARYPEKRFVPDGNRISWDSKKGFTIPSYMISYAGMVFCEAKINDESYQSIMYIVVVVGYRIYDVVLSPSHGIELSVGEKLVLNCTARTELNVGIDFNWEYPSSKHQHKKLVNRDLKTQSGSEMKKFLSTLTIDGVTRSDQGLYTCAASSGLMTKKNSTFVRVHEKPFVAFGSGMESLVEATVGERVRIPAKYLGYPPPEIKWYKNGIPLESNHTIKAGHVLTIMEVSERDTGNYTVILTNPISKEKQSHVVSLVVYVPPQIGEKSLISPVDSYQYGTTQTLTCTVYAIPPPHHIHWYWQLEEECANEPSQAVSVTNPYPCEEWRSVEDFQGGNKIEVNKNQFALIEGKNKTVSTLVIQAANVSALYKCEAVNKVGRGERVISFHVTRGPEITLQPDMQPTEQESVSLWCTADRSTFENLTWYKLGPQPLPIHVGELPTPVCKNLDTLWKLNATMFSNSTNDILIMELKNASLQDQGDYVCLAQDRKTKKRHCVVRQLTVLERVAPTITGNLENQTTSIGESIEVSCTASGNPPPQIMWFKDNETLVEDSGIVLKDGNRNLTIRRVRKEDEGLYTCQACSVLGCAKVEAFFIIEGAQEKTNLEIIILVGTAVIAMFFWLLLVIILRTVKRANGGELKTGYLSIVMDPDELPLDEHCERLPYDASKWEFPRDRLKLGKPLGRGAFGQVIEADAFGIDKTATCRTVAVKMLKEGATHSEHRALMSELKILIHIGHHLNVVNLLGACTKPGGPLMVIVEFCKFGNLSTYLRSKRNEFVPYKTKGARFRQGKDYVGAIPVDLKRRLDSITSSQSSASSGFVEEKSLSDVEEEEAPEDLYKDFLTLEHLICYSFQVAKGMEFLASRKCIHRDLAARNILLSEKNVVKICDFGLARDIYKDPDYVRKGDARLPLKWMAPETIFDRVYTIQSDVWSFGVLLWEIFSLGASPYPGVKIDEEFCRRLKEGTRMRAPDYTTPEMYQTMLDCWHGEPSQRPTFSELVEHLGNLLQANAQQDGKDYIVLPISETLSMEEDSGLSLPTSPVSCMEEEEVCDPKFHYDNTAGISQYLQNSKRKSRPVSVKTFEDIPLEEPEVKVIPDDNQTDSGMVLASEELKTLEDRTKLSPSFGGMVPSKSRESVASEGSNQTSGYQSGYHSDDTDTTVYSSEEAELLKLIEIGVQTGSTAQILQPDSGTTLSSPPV
Sequence of PDGFR-alpha_h (P16234 24-1089): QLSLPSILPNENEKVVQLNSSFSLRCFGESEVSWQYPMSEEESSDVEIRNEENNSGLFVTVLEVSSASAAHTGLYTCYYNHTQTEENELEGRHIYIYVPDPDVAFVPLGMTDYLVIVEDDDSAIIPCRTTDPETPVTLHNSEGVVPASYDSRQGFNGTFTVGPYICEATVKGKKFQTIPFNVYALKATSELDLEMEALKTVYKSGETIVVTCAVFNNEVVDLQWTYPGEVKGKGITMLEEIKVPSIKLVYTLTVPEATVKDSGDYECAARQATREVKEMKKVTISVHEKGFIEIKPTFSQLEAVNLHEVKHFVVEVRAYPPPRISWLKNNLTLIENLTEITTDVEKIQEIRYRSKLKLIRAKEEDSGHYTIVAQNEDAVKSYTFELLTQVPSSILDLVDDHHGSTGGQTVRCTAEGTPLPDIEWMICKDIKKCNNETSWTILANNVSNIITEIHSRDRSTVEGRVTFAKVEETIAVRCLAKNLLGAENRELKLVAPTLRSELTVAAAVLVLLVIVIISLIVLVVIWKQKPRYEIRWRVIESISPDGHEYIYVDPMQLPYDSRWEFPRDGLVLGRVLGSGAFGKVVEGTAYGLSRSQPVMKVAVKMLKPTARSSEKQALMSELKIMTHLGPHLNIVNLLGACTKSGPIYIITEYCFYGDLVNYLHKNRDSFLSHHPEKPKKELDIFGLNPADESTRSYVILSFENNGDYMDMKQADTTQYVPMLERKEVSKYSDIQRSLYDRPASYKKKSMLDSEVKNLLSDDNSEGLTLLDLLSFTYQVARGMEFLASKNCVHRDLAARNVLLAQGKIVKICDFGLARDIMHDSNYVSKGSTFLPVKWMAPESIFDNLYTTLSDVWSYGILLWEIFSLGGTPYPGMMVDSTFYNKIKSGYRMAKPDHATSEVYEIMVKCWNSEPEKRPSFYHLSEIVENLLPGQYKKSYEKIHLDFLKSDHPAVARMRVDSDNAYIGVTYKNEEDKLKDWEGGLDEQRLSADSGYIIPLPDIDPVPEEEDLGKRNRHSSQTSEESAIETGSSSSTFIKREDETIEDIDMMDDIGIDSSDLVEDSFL
T13 sequence (O60674 532-1132 limits assumed): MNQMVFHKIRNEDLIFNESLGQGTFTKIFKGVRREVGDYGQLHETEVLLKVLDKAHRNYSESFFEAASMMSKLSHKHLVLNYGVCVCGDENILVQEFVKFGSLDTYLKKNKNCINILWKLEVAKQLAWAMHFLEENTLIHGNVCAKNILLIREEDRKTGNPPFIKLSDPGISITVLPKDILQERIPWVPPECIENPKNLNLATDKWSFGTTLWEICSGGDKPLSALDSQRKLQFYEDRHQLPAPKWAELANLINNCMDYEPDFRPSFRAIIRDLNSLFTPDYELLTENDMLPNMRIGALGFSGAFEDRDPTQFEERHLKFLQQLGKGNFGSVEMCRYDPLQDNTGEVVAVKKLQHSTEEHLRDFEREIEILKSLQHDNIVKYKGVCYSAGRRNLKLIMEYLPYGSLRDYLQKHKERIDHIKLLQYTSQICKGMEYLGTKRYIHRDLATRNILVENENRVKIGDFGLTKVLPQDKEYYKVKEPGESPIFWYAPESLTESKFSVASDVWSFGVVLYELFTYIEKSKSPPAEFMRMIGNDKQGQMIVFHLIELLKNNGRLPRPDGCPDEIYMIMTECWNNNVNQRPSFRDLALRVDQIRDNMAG
T21 sequence (Q13237 whole entry): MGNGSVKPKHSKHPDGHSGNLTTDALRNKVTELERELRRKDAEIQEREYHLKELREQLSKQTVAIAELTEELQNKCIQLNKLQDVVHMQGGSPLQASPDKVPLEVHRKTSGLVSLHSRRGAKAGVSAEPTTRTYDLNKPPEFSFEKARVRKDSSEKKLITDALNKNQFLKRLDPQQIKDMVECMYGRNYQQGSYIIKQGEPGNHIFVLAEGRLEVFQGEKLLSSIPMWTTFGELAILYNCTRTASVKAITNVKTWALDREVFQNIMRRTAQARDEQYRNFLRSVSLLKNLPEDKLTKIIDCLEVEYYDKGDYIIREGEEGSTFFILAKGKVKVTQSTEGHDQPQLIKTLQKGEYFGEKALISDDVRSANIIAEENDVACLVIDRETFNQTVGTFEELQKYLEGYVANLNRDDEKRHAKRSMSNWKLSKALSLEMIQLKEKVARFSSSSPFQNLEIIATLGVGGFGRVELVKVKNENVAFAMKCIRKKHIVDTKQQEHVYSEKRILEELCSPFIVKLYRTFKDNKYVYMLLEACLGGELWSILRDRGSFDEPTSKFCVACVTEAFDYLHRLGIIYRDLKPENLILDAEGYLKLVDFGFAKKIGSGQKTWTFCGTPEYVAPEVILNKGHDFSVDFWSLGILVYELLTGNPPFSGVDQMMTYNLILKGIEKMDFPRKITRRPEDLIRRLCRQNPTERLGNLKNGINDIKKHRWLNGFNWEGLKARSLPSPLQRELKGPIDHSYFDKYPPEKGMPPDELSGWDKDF
T18 sequence (P16234 24-1089 T674I): as the sequence (P16234 24-1089) above, with T651I counted along it
T12 sequence (O60674 532-1132 V617F limits assumed): as the sequence (O60674 532-1132 limits assumed) above, with V86F counted along it

c1cc(CC2CCOCC2)n2nc(Nc3ccc4c(NC5CCOCC5)n[nH]c4c3)nc2c1 [CC-509, [3-(2H-3,4,5,6-tetrahydropyran-4-ylamino)(1H-indazol-6-yl)][5-(2H-3,4,5,6-tetrahydropyran-4-ylmethyl)(2H-1,2,4-triazolo[1,5-a]pyridin-2-yl)]amine]
remaining activity at 3 µM (Abl_G250E_h): 29% | remaining activity at 3 µM (Abl_T315I_h): 34% | remaining activity at 3 µM (Abl_h): 19% | remaining activity at 3 µM (Aurora-C_h): 18% | remaining activity at 3 µM (CAMK1_h): 86% | remaining activity at 3 µM (CDK5_p35_h): 77% | remaining activity at 3 µM (EphB3_h): 42% | remaining activity at 3 µM (Fes_h): 53% | remaining activity at 3 µM (GRK7_h): 94% | remaining activity at 3 µM (GSK3-alpha_h): 91% | remaining activity at 3 µM (HIPK1_h): 94% | remaining activity at 3 µM (JAK2-JH1-JH2_V617F_h): 8% | remaining activity at 3 µM (JAK2-JH1-JH2_h): 4% | remaining activity at 3 µM (KDR_h; [1]): 3% | IC50 (KDR_h; [2]): 185 nM | remaining activity at 3 µM (MARK3_h): 42% | remaining activity at 3 µM (MINK_h): 55% | remaining activity at 3 µM (NEK6_h): 99% | remaining activity at 3 µM (NEK9_h): 95% | remaining activity at 3 µM (PDGFR-alpha_T674I_h): 80% | remaining activity at 3 µM (PDGFR-alpha_h; [1]): 4% | IC50 (PDGFR-alpha_h; [2]): 204 nM | remaining activity at 3 µM (PKD2_h): 52% | remaining activity at 3 µM (PRK1_h): 60% | remaining activity at 3 µM (PRKG2_h): 93% | remaining activity at 3 µM (Plk1_h): 88% | remaining activity at 3 µM (Plk3_h): 88% | remaining activity at 3 µM (Ret_h; [1]): 13% | IC50 (Ret_h; [2]): 397 nM | remaining activity at 3 µM (Ron_h): 74% | remaining activity at 3 µM (Ros_h): 74% | remaining activity at 3 µM (TBK1_h): 10% | remaining activity at 3 µM (TrkC_h): 25% | remaining activity at 3 µM (cKit_T670I_h): 83% | remaining activity at 3 µM (cSRC-N1_h): 58%
